Measurements as given in PubChem BioAssay AID1963868 (Molecular Pharmacology Branch, DTP, NCI, 2024).
pIC50: −log10 of the molar value.

System: KRAS PDC tumor spheroids (HUVEC+MSC), viability
Assay: Anticancer human tumor 254851-301-R-J1-PDC patient-derived colon carcinoma cell line growth inhibition [KRAS2]
Details: for pIC50: curve of first compound; for viability, T/C: stronger effect = lower value
Method in brief: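 KRAS-mutant tumor cells were grown as spheroids with HUVEC endothelial cells and human MSCs as stroma. Targeted agents were tested alone and with KRAS pathway inhibitors. Doses started at or near clinical Cmax, or 10 microM, descending half-log.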

[1] = second compound 0.1 µM, first compound 0.0316 µM
[2] = second compound 0.1 µM, first compound 0.1 µM
[3] = second compound 0.1 µM, first compound 0.316 µM
[4] = second compound 0.1 µM, first compound 1 µM
[5] = second compound 0.1 µM, first compound 3.16 µM
[6] = second compound 0.1 µM, first compound 10 µM
[7] = second compound 0.316 µM, first compound 0.0316 µM
[8] = second compound 0.316 µM, first compound 0.1 µM
[9] = second compound 0.316 µM, first compound 0.316 µM
[10] = second compound 0.316 µM, first compound 1 µM
[11] = second compound 0.316 µM, first compound 3.16 µM
[12] = second compound 0.316 µM, first compound 10 µM
[13] = second compound 1 µM, first compound 0.0316 µM
[14] = second compound 1 µM, first compound 0.1 µM
[15] = second compound 1 µM, first compound 0.316 µM
[16] = second compound 1 µM, first compound 1 µM
[17] = second compound 1 µM, first compound 3.16 µM
[18] = second compound 1 µM, first compound 10 µM
[19] = second compound 3.16 µM, first compound 0.0316 µM
[20] = second compound 3.16 µM, first compound 0.1 µM
[21] = second compound 3.16 µM, first compound 0.316 µM
[22] = second compound 3.16 µM, first compound 1 µM
[23] = second compound 3.16 µM, first compound 3.16 µM
[24] = second compound 3.16 µM, first compound 10 µM
[25] = second compound 10 µM, first compound 0.0316 µM
[26] = second compound 10 µM, first compound 0.1 µM
[27] = second compound 10 µM, first compound 0.316 µM
[28] = second compound 10 µM, first compound 1 µM
[29] = second compound 10 µM, first compound 3.16 µM
[30] = second compound 10 µM, first compound 10 µM
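Note: spheroids exposed to compounds for seven days before readout.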
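Throughout, for viability, T/C: 100% = DMSO vehicle control luminescence of the spheroids.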

Q: CC(C)NCC(C(=O)N1CCN(c2ncnc3c2C(C)CC3O)CC1)c1ccc(Cl)cc1 (stereo not given) + CNCc1ccccc1-c1csc(C(C)Nc2nc(C)nc3cc(OC)c(OC)cc23)c1 was tested. Which pIC50 (second compound 0.1 µM) did it give?
A: < 5.00

Q: What about the pIC50 (second compound 0.316 µM) of the same molecule?
A: < 5.00

Q: What about the pIC50 (second compound 1 µM) of the same molecule?
A: < 5.00

Q: And the pIC50 (second compound 3.16 µM)?
A: < 5.00

Q: What about the pIC50 (second compound 10 µM) of the same molecule?
A: > 7.50

Q: And the viability, T/C [1]?
A: 105%

Q: What about the viability, T/C [2] of the same molecule?
A: 99.1%

Q: And the viability, T/C [3]?
A: 93.3%

Q: And the viability, T/C [4]?
A: 92%

Q: What about the viability, T/C [5] of the same molecule?
A: 99.1%

Q: And the viability, T/C [6]?
A: 92.1%

Q: And the viability, T/C [7]?
A: 107%

Q: And the viability, T/C [8]?
A: 111%

Q: What about the viability, T/C [9] of the same molecule?
A: 93.4%

Q: And the viability, T/C [10]?
A: 89.5%

Q: What about the viability, T/C [11] of the same molecule?
A: 95.6%

Q: And the viability, T/C [12]?
A: 93.5%

Q: And the viability, T/C [13]?
A: 94.8%

Q: What about the viability, T/C [14] of the same molecule?
A: 94%

Q: What about the viability, T/C [15] of the same molecule?
A: 80.3%

Q: And the viability, T/C [16]?
A: 84.5%

Q: What about the viability, T/C [17] of the same molecule?
A: 83.2%

Q: And the viability, T/C [18]?
A: 89.4%

Q: What about the viability, T/C [19] of the same molecule?
A: 78.6%

Q: What about the viability, T/C [20] of the same molecule?
A: 67.8%

Q: What about the viability, T/C [21] of the same molecule?
A: 56%

Q: And the viability, T/C [22]?
A: 73.1%

Q: And the viability, T/C [23]?
A: 56.5%

Q: What about the viability, T/C [24] of the same molecule?
A: 52.6%

Q: What about the viability, T/C [25] of the same molecule?
A: 0.18%

Q: What about the viability, T/C [26] of the same molecule?
A: 0.19%

Q: What about the viability, T/C [27] of the same molecule?
A: 0.17%

Q: And the viability, T/C [28]?
A: 0.17%

Q: And the viability, T/C [29]?
A: 0.16%

Q: And the viability, T/C [30]?
A: 0.22%

Q: With Cn1nccc1Nc1nccc(-c2cc3c(s2)C(C)(C)N(CCN2CCOCC2)C3=O)n1 + C=CC(=O)N1CCN(c2nc(=O)n(-c3c(C)ccnc3C(C)C)c3nc(-c4c(O)cccc4F)c(F)cc23)C(C)C1 as the molecule, how does the pIC50 (second compound 0.1 µM) read?
A: 5.56

Q: What about the pIC50 (second compound 0.316 µM) of the same molecule?
A: 5.43

Q: What about the pIC50 (second compound 1 µM) of the same molecule?
A: 5.59

Q: And the pIC50 (second compound 3.16 µM)?
A: 5.72

Q: What about the pIC50 (second compound 10 µM) of the same molecule?
A: 5.51

Q: What about the viability, T/C [1] of the same molecule?
A: 87.5%

Q: What about the viability, T/C [2] of the same molecule?
A: 94.5%

Q: What about the viability, T/C [3] of the same molecule?
A: 94.5%

Q: What about the viability, T/C [4] of the same molecule?
A: 96.8%

Q: What about the viability, T/C [5] of the same molecule?
A: 44.1%

Q: What about the viability, T/C [6] of the same molecule?
A: 4.13%

Q: What about the viability, T/C [7] of the same molecule?
A: 102%

Q: What about the viability, T/C [8] of the same molecule?
A: 92.2%

Q: And the viability, T/C [9]?
A: 102%

Q: What about the viability, T/C [10] of the same molecule?
A: 88%

Q: What about the viability, T/C [11] of the same molecule?
A: 58.2%

Q: What about the viability, T/C [12] of the same molecule?
A: 4.04%

Q: What about the viability, T/C [13] of the same molecule?
A: 95.5%

Q: And the viability, T/C [14]?
A: 91.2%

Q: What about the viability, T/C [15] of the same molecule?
A: 91.9%

Q: What about the viability, T/C [16] of the same molecule?
A: 79.5%

Q: And the viability, T/C [17]?
A: 43.5%

Q: And the viability, T/C [18]?
A: 5.08%

Q: What about the viability, T/C [19] of the same molecule?
A: 73.7%

Q: And the viability, T/C [20]?
A: 82.7%

Q: What about the viability, T/C [21] of the same molecule?
A: 78.6%

Q: What about the viability, T/C [22] of the same molecule?
A: 77.6%

Q: And the viability, T/C [23]?
A: 28.6%

Q: What about the viability, T/C [24] of the same molecule?
A: 3.74%

Q: And the viability, T/C [25]?
A: 97.1%

Q: And the viability, T/C [26]?
A: 97.1%

Q: And the viability, T/C [27]?
A: 79.7%

Q: What about the viability, T/C [28] of the same molecule?
A: 74.9%

Q: What about the viability, T/C [29] of the same molecule?
A: 51.5%

Q: What about the viability, T/C [30] of the same molecule?
A: 4.35%

Q: How did the pIC50 (second compound 0.1 µM) turn out when CCNC(=O)CC1N=C(c2ccc(Cl)cc2)c2cc(OC)ccc2-n2c(C)nnc21 (stereo not given) + COc1cc2nc(C)nc(NC(C)c3cc(N)cc(C(F)(F)F)c3)c2cc1OC1CCOC1 was run?
A: 5.46

Q: And the pIC50 (second compound 0.316 µM)?
A: 5.60

Q: And the pIC50 (second compound 1 µM)?
A: 5.71

Q: And the pIC50 (second compound 3.16 µM)?
A: 6.18

Q: And the pIC50 (second compound 10 µM)?
A: 6.15

Q: And the viability, T/C [1]?
A: 115%

Q: And the viability, T/C [2]?
A: 123%

Q: What about the viability, T/C [3] of the same molecule?
A: 97.6%

Q: And the viability, T/C [4]?
A: 84.8%

Q: What about the viability, T/C [5] of the same molecule?
A: 45%

Q: What about the viability, T/C [6] of the same molecule?
A: 43%

Q: What about the viability, T/C [7] of the same molecule?
A: 113%

Q: What about the viability, T/C [8] of the same molecule?
A: 122%

Q: And the viability, T/C [9]?
A: 109%

Q: What about the viability, T/C [10] of the same molecule?
A: 65.8%

Q: What about the viability, T/C [11] of the same molecule?
A: 45.5%

Q: What about the viability, T/C [12] of the same molecule?
A: 45.5%

Q: And the viability, T/C [13]?
A: 103%

Q: What about the viability, T/C [14] of the same molecule?
A: 111%

Q: What about the viability, T/C [15] of the same molecule?
A: 98.6%

Q: What about the viability, T/C [16] of the same molecule?
A: 65.9%

Q: And the viability, T/C [17]?
A: 39.2%

Q: What about the viability, T/C [18] of the same molecule?
A: 17.6%

Q: And the viability, T/C [19]?
A: 73%

Q: What about the viability, T/C [20] of the same molecule?
A: 107%

Q: What about the viability, T/C [21] of the same molecule?
A: 76%

Q: What about the viability, T/C [22] of the same molecule?
A: 36.2%

Q: What about the viability, T/C [23] of the same molecule?
A: 22.4%

Q: What about the viability, T/C [24] of the same molecule?
A: 26.4%

Q: And the viability, T/C [25]?
A: 79.9%

Q: And the viability, T/C [26]?
A: 81.6%

Q: And the viability, T/C [27]?
A: 74.8%

Q: And the viability, T/C [28]?
A: 39.2%

Q: What about the viability, T/C [29] of the same molecule?
A: 22.9%

Q: And the viability, T/C [30]?
A: 15.7%
